Legend:
CDK12/CycK = CDK12/CycK (Homo sapiens, UniProt Q9NYV4); assay: CDK12/CycK high ATP kinase assay (TR-FRET, 2 mM ATP); format: biochemical; details: 2 mM ATP (high ATP); median; read-out: CDK12/CyclinK, 2 mM ATP (high ATP), IC50-[mol/l] (median)
Method in brief: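 Read-out is TR-FRET (Eu-anti-rabbit IgG, anti-phospho-c-Myc Ser62 antibody, streptavidin-XL665) after EDTA stop. Reaction ran 60 min at 22 °C using 1 µM biotin-peptide and high ATP (2 mM) with roughly 0.75 nM recombinant CDK12/CycK, after 15 min compound pre-binding; normalised emission ratios yield IC50.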

[1] = biological target: T1, CDK12 (nuclear staining in CAL-120 cells) (Homo sapiens, UniProt Q9NYV4); assay: CDK12 nuclear protein level: immunofluorescence/high content analysis (CAL-120); format: cell-based; details: for DC50: CAL-120 cells, 24 h, immunofluorescence, 50% reduction of nuclear CDK12 staining intensity, median, read-out: CDK12 degradation IF, DC50- [mol/l] (median); for (IC50 CDK12 high ATP) to (Degradation DC50 CDK12) ratio: ratio of IC50 CDK12 high ATP kinase assay to DC50 CDK12 degradation (IF, CAL-120)
T1 construct: endogenous in cells; host or cells: CAL-120 human breast cancer cells (DSMZ ACC 459)
T1 sequence (Q9NYV4 whole entry): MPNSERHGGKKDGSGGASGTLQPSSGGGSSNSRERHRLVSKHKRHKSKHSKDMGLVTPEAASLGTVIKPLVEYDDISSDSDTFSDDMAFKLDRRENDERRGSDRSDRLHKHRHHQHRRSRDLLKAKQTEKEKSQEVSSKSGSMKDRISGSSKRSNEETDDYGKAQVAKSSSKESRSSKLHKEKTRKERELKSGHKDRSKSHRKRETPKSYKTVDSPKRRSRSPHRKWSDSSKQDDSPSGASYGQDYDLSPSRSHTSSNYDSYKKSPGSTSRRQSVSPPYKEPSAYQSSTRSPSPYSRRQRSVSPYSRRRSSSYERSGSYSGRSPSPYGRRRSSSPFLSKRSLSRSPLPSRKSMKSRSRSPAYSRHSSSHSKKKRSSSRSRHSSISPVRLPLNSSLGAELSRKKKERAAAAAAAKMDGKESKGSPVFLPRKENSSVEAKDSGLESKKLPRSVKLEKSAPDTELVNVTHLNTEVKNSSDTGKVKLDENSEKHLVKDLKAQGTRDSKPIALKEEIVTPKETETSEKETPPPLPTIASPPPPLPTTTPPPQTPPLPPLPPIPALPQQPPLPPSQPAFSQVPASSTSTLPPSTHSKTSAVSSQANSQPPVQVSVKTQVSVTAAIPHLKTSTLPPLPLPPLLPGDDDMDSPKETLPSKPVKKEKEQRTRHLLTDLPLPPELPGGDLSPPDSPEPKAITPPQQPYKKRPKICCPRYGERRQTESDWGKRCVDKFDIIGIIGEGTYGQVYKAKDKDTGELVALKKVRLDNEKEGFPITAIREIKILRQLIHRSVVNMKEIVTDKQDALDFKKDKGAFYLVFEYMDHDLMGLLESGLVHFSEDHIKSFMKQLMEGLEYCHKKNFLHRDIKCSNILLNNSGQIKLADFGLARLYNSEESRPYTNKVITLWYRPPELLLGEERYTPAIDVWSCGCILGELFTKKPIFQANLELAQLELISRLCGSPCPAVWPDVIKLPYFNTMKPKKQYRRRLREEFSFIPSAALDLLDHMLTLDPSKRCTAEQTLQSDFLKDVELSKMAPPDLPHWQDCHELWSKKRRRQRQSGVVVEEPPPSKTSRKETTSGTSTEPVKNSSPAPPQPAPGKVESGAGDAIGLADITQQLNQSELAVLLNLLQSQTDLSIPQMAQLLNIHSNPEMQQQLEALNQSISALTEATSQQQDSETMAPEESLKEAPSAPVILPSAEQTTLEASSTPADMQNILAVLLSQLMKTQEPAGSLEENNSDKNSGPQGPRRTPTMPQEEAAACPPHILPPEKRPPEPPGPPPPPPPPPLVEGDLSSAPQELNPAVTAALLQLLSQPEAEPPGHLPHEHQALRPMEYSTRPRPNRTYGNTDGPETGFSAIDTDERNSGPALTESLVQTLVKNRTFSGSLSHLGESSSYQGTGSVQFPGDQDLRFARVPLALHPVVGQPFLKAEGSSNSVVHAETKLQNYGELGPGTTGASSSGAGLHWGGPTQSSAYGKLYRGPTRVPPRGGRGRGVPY
T1 sequence (O75909 whole entry partner): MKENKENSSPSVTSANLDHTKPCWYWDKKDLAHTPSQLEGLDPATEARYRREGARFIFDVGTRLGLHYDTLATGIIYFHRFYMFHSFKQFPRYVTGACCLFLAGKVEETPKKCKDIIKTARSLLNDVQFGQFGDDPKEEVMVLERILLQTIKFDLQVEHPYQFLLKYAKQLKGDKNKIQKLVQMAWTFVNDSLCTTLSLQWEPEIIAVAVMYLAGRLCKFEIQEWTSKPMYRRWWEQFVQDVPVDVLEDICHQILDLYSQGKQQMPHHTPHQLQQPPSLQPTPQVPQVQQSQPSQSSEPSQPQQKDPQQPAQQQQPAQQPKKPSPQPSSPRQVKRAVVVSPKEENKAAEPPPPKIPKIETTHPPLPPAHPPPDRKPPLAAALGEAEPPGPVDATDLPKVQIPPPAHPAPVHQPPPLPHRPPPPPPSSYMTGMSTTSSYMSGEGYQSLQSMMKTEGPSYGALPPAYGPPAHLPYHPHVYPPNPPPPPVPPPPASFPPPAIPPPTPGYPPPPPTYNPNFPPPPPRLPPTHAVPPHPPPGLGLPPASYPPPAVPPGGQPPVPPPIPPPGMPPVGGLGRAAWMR
Method in brief: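 DC50 is the degrader concentration that halves nuclear CDK12 immunofluorescence relative to controls, measured by high-content imaging. CAL-120 cells were exposed to compound for 24 h at 37 °C before PFA fixation, and signal was normalized to DMSO and control wells.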

[2] = system: BRCA1 mRNA expression in MDA-MB-231 cells; assay: qRT-PCR assay: BRCA1 mRNA expression in MDA-MB-231; format: cell-based, human; details: Homo sapiens, MDA-MB-231, Inhibition of BRCA1 mRNA expression in MDA-MB-231 cells; median; read-out: RTqPCR-MDA-MB-231, IC50, BRCA1 (median)
Method in brief: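 BRCA1 transcript by RT-qPCR relative to GAPDH, from 600 ng RNA converted to cDNA. MDA-MB-231 cells plated at 200,000/well received test compound continuously for 24 h, starting 24 h post-seeding.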

Sequence of CDK12/CycK (Q9NYV4 with tags, fused parts or gaps): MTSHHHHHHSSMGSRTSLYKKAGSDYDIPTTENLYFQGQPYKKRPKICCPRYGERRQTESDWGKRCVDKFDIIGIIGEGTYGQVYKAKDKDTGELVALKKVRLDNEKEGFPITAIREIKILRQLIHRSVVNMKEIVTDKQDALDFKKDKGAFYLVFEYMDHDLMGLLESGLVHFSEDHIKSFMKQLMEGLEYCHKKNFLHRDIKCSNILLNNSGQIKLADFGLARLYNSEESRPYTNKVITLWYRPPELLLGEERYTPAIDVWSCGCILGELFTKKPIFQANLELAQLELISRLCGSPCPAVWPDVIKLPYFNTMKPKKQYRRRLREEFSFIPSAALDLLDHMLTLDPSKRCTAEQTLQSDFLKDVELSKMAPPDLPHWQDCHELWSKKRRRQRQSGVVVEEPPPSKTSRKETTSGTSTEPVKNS
Sequence of CDK12/CycK (O75909 1-300 partner limits assumed): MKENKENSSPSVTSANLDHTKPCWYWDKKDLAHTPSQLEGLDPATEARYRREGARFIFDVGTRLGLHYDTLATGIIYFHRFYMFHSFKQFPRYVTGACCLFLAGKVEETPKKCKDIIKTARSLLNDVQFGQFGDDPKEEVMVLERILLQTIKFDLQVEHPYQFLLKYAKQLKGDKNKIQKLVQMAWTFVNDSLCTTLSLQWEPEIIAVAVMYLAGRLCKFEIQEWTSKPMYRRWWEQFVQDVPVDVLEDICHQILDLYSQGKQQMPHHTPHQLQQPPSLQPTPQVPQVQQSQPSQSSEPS

| SMILES | IC50 (CDK12/CycK) [nM] | DC50 [1] [nM] | (IC50 CDK12 high ATP) to (Degradation DC50 CDK12) ratio [1] | IC50 [2] [nM] |
| --- | --- | --- | --- | --- |
| Brc1cnn2c(NCc3nc4ccccc4[nH]3)nc(N3C[C@@H]4C[C@H]3CN4)nc12 [Example 270, N-[(1H-benzimidazol-2-yl)methyl]-8-bromo-2-[(1S,4S)-2,5-diazabicyclo[2.2.1]heptan-2-yl]pyrazolo[1,5-a][1,3,5]triazin-4-amine] | 13700 | 1.71 | 8023 | 6.41 |
| Brc1cnn2c(NCc3nc4ccccc4[nH]3)nc(N3CC4CCNC4C3)nc12 (stereo not drawn) [Example 271, 2-(2,3,3a,4,6,6a-hexahydro-1H-pyrrolo[2,3-c]pyrrol-5-yl)-N-(1H-benzimidazol-2-ylmethyl)-8-bromo-pyrazolo[1,5-a][1,3,5]triazin-4-amine] | > 20000 | 18.3 | >1094 | 13.9 |
| Brc1cnn2c(NCc3nc4ccccc4[nH]3)nc(NCC3CC3)nc12 [Example 284, N^4-[(1H-benzimidazol-2-yl)methyl]-8-bromo-N^2-(cyclopropylmethyl)pyrazolo[1,5-a][1,3,5]triazine-2,4-diamine] | 5460 | 48.5 | 113 | 24.2 |
| CN(CC1CC1)c1nc(NCc2nc3ccccc3[nH]2)n2ncc(Br)c2n1 [Example 287, N^4-[(1H-benzimidazol-2-yl)methyl]-8-bromo-N^2-(cyclopropylmethyl)-N^2-methylpyrazolo[1,5-a][1,3,5]triazine-2,4-diamine] | 10700 | 101 | 106 | 20.8 |
| N[C@H]1[C@@H]2C[C@H]1CN(c1nc(NCc3nc4ccccc4[nH]3)n3ncc(Br)c3n1)C2 [Example 288, 2-[(1R,5S,6r)-6-amino-3-azabicyclo[3.1.1]heptan-3-yl]-N-[(1H-benzimidazol-2-yl)methyl]-8-bromopyrazolo[1,5-a][1,3,5]triazin-4-amine] | 3380 | 1.16 | 2920 | 2.69 |
| N[C@@H]1[C@@H]2C[C@H]1CN(c1nc(NCc3nc4ccccc4[nH]3)n3ncc(Br)c3n1)C2 [Example 289, 2-[(1R,5S,6s)-6-amino-3-azabicyclo[3.1.1]heptan-3-yl]-N-[(1H-benzimidazol-2-yl)methyl]-8-bromopyrazolo[1,5-a][1,3,5]triazin-4-amine] | 7000 | 3.13 | 2240 | 2.91 |
| CN(CC(C)(C)O)c1nc(NCc2nc3c(F)c(F)ccc3[nH]2)n2ncc(C3CC3)c2n1 [Example 292, 1-[(8-cyclopropyl-4-{[(4,5-difluoro-1H-benzimidazol-2-yl)methyl]amino}pyrazolo[1,5-a][1,3,5]triazin-2-yl)(methyl)amino]-2-methylpropan-2-ol] | 666 | 0.878 | 758 | 2.8 |
| Fc1ccc2[nH]c(CNc3nc(N4C[C@H]5CC[C@@H](C4)N5)nc4c(C5CC5)cnn34)nc2c1F [Example 294, 8-cyclopropyl-2-[(1R,5S)-3,8-diazabicyclo[3.2.1]octan-3-yl]-N-[(4,5-difluoro-1H-benzimidazol-2-yl)methyl]pyrazolo[1,5-a][1,3,5]triazin-4-amine] | 1860 | 2.73 | 684 | 1.16 |
| Fc1cccc2[nH]c(CNc3nc(N4C[C@H]5CC[C@@H](C4)N5)nc4c(C5CC5)cnn34)nc12 [Example 296, 8-cyclopropyl-2-[(1R,5S)-3,8-diazabicyclo[3.2.1]octan-3-yl]-N-[(4-fluoro-1H-benzimidazol-2-yl)methyl]pyrazolo[1,5-a][1,3,5]triazin-4-amine] | 2480 | 2.55 | 971 | 1.27 |

More lines, now with the values ahead:

| IC50 (CDK12/CycK) [nM] | DC50 [1] [nM] | (IC50 CDK12 high ATP) to (Degradation DC50 CDK12) ratio [1] | IC50 [2] [nM] | SMILES |
| --- | --- | --- | --- | --- |
| > 20000 | 7.24 | >2761 | 7.91 | CNC1CCN(c2nc(NCc3nc4ccccc4[nH]3)n3ncc(Br)c3n2)CC1 [Example 272, N-[(1H-benzimidazol-2-yl)methyl]-8-bromo-2-[4-(methylamino)piperidin-1-yl]pyrazolo[1,5-a][1,3,5]triazin-4-amine] |
| 983 | 1.44 | 512 | 1.95 | Fc1ccc2[nH]c(CNc3nc(N4CCOCC4)nc4c(C(F)(F)F)cnn34)nc2c1 [Example 273, N-[(5-fluoro-1H-benzimidazol-2-yl)methyl]-2-(morpholin-4-yl)-8-(trifluoromethyl)pyrazolo[1,5-a][1,3,5]triazin-4-amine] |
| 39.5 | 0.881 | 64 | 1.92 | Fc1cccc2[nH]c(CNc3nc(N4CCOCC4)nc4c(C(F)(F)F)cnn34)nc12 [Example 274, N-[(4-fluoro-1H-benzimidazol-2-yl)methyl]-2-(morpholin-4-yl)-8-(trifluoromethyl)pyrazolo[1,5-a][1,3,5]triazin-4-amine] |
| 97.3 | 1.7 | 57 | 2.01 | FC(F)(F)c1cnn2c(NCc3nc4cc(Cl)ccc4[nH]3)nc(N3CCOCC3)nc12 [Example 275, N-[(5-chloro-1H-benzimidazol-2-yl)methyl]-2-(morpholin-4-yl)-8-(trifluoromethyl)pyrazolo[1,5-a][1,3,5]triazin-4-amine] |
| 4790 | 4.48 | 1071 | 5.42 | COc1cccc2[nH]c(CNc3nc(N4CCOCC4)nc4c(CC(F)(F)F)cnn34)nc12 [Example 277, N-[(4-methoxy-1H-benzimidazol-2-yl)methyl]-2-(morpholin-4-yl)-8-(2,2,2-trifluoroethyl)pyrazolo[1,5-a][1,3,5]triazin-4-amine] |
| 2440 | 1.18 | 2070 | 3.89 | Fc1ccc2[nH]c(CNc3nc(N4CCOCC4)nc4c(C5CC5(F)F)cnn34)nc2c1F (stereo not drawn) [Example 278, N-[(4,5-difluoro-1H-benzimidazol-2-yl)methyl]-8-(2,2-difluorocyclopropyl)-2-(morpholin-4-yl)pyrazolo[1,5-a][1,3,5]triazin-4-amine] |
| 14000 | 4.72 | 2961 | 12 | FC1(F)CC1c1cnn2c(NCc3nc4ccccc4[nH]3)nc(N3CCOCC3)nc12 (stereo not drawn) [Example 279, N-[(1H-benzimidazol-2-yl)methyl]-8-(2,2-difluorocyclopropyl)-2-(morpholin-4-yl)pyrazolo[1,5-a][1,3,5]triazin-4-amine] |
| 18300 | 6.97 | 2630 | 9.13 | Brc1cnn2c(NCc3nc4ccccc4[nH]3)nc(N3C[C@H]4CNC[C@H]4C3)nc12 [Example 283, N-[(1H-benzimidazol-2-yl)methyl]-8-bromo-2-[(3aR,6aS)-hexahydropyrrolo[3,4-c]pyrrol-2(1H)-yl]pyrazolo[1,5-a][1,3,5]triazin-4-amine] |
| > 19800 | 21.5 | >920 | 17.6 | CC1(N)CCN(c2nc(NCc3nc4ccccc4[nH]3)n3ncc(Br)c3n2)CC1 [Example 290, 2-(4-amino-4-methylpiperidin-1-yl)-N-[(1H-benzimidazol-2-yl)methyl]-8-bromopyrazolo[1,5-a][1,3,5]triazin-4-amine] |
| 10700 | 19.2 | 554 | 15.3 | Brc1cnn2c(NCc3nc4ccccc4[nH]3)nc(N3CCC4(CCN4)CC3)nc12 [Example 291, N-[(1H-benzimidazol-2-yl)methyl]-8-bromo-2-(1,7-diazaspiro[3.5]nonan-7-yl)pyrazolo[1,5-a][1,3,5]triazin-4-amine] |
| 5910 | 1.71 | 3446 | 5.68 | CN1CCN(c2nc(NCc3nc4c(F)cccc4[nH]3)n3ncc(C(F)(F)F)c3n2)CC1 [Example 293, N-[(4-fluoro-1H-benzimidazol-2-yl)methyl]-2-(4-methylpiperazin-1-yl)-8-(trifluoromethyl)pyrazolo[1,5-a][1,3,5]triazin-4-amine] |
| 829 | 3.52 | 235 | 4.81 | CN(CC(C)(C)O)c1nc(NCc2nc3c(F)cccc3[nH]2)n2ncc(C3CC3)c2n1 [Example 295, 1-[(8-cyclopropyl-4-{[(4-fluoro-1H-benzimidazol-2-yl)methyl]amino}pyrazolo[1,5-a][1,3,5]triazin-2-yl)(methyl)amino]-2-methylpropan-2-ol] |

— patent publication US20230117034A1, “PYRAZOLOTRIAZINES” (Bayer Aktiengesellschaft, priority 2019, published 2023)
